For the test, the system named is human ovarian carcinoma cells (CRL157). In words: Cytotoxicity to human ovarian carcinoma cells (CRL157), Example 1. The settings on record: Ovarian carcinoma cell. Type of test: cell-based. The protocol:
A. A block copolymer of poly(oxyethylene)-poly(oxypropylene) in which N=0.25 (Pluronic F-68) is diluted with RPMI 1640 medium to a final concentration of 2.0% at 4° C. The mixture is incubated for 30 minutes at 37° C. and then sterilely filtered through a 0.22 μm filter. An equal volume of a solution of 200 μg daunorubicin in RPMI 1640 medium is added and this mixture is incubated for 30 minutes at 37° C.
B. Human ovarian carcinoma cells (CRL157) are precultured in 1% solution of the same block copolymer but without daunorubicin in RPMI 1640 medium supplemented with 10% calf fetal serum. The preparation of part A is added and the mixture is incubated for 60 minutes at 37° C. and the cells then washed three times with RPMI 1640 and cultured in RPMI 1640 supplemented with 10% calf fetal serum for 3 days {Prep. A}. Cytotoxicity is measured, both for this preparation and a parallel preparation of free daunorubicin {Prep. B}, using the method of Alley et al., Cancer Res., 48, 589-601 (1988).

What is called inhibition is the percentage by which the read-out fell short of the control. The low end stands for little suppression, the high end for strong suppression. For the compound `COc1cccc2c1C(=O)c1c(O)c3c(c(O)c1C2=O)C[C@@](O)(C(C)=O)C[C@@H]3O[C@H]1C[C@H](N)[C@H](O)[C@H](C)O1` [Prep. B, daunorubicin], the inhibition at 0.016 µg/mL came to 1%, the inhibition at 0.08 µg/mL is 20%, the inhibition at 0.4 µg/mL was 38% and testing at 2 µg/mL gave an inhibition of 53%. This compound returned an inhibition at 10 µg/mL of 81% and an inhibition at 50 µg/mL of 100%.

Source of the values: US5698529A, “Chemotherapeutic compositions” (Supratek Pharma, Inc., priority 1996, dated 1997).
